The results in this text go back to PubChem BioAssay AID1259408 (Genetic Toxicology Data Bank (GENE-TOX), 2018).

SMILES strings stand for the structures. Calls of active or inactive are those of the source. How the calls were made is not given here.

In the data set the test system is GENE-TOX genotoxicity assays, various organisms and cells. Description: GENE-TOX mutagenicity studies. To be noted: for call: Assay Type: In vivo carcinogenicity studies.
The mark [1] stands for this setting: Species/Cell Type: Mouse, Sex: Male, Assay Type: Sperm morphology, Assay Code: SPI-, Evaluation Type: Evaluation A (Pre-1980).
Setting [2] is: Species/Cell Type: Nonhuman, Assay Code: CCG+L, Evaluation Type: Evaluation A (Pre-1980).
[3] abbreviates: Species/Cell Type: Nonhuman, Assay Type: Sister-chromatid exchange (SCE) in vivo, Assay Code: SC3T, Evaluation Type: Evaluation B (Post-1980).
Where [4] appears, read: Species/Cell Type: Rodents, Sex: Male, Assay Type: Dominant lethal test, Assay Code: DLT-, Evaluation Type: Evaluation A (Pre-1980).
The mark [5] stands for this setting: Species/Cell Type: Nonhuman, Assay Type: Sister-chromatid exchange (SCE) in vitro, Assay Code: SC2+D, Dose Response: With dose response, Evaluation Type: Evaluation A (Pre-1980).
The mark [6] stands for this setting: Species/Cell Type: Salmonella typhimurium (one or more of the five standard strains: TA98, TA100, TA1535, TA1537, and TA1538), Assay Type: Histidine reverse gene mutation, Ames assay, Assay Code: SAL+, Evaluation Type: Evaluation A (Pre-1980).
Setting [7] is: Species/Cell Type: Salmonella typhimurium (one or more of the five standard strains: TA98, TA100, TA1535, TA1537, and TA1538), Assay Type: Histidine reverse gene mutation, Ames assay, Assay Code: SAL+*, Activation: With metabolic activation, Evaluation Type: Evaluation A (Pre-1980).
[8] abbreviates: Species/Cell Type: Human lymphocytes, Assay Type: Sister-chromatid exchange (SCE) in vitro, Assay Code: SCLT, Evaluation Type: Evaluation B (Post-1980).
The mark [9] stands for this setting: Species/Cell Type: Human, Assay Type: Sister-chromatid exchange (SCE) in vitro, Assay Code: SC1T, Evaluation Type: Evaluation B (Post-1980).
[10] abbreviates: Species/Cell Type: Salmonella typhimurium (one or more of the five standard strains: TA98, TA100, TA1535, TA1537, and TA1538), Assay Type: Histidine reverse gene mutation, Ames assay, Assay Code: SALT, Evaluation Type: Evaluation A (Pre-1980).

Consider `CCOc1nc2c(c(=O)n(C)c(=O)n2C)n1C`, for which the mutagenic call (Species/Cell Type: Allium cepa, Assay Type: Chromosome aberrations, Assay Code: ALC+D, Dose Response: With dose response, Evaluation Type: Evaluation A (Pre-1980)) is “active; positive”; the mutagenic call (Species/Cell Type: Arabidopsis species, Assay Type: Gene mutation, Assay Code: ARM+, Evaluation Type: Evaluation A (Pre-1980)) is “active; positive”; the mutagenic call (Species/Cell Type: Human lymphocytes or leukocytes, Assay Type: Chromosome aberrations in vitro, Assay Code: CY7+, Evaluation Type: Evaluation A (Pre-1980)) was “active; positive”; the mutagenic call (Species/Cell Type: Nonhuman, Assay Type: Chromosome aberrations in vitro, Assay Code: CY&+, Evaluation Type: Evaluation A (Pre-1980)) is “active; positive”; the mutagenic call (Species/Cell Type: Nonhuman, Assay Type: Sister-chromatid exchange (SCE) in vitro, Assay Code: SC2-, Evaluation Type: Evaluation B (Post-1980)) was “inactive; negative”; the mutagenic call (Species/Cell Type: Nonhuman, Assay Type: Sister-chromatid exchange (SCE) in vitro, Assay Code: SC2T, Evaluation Type: Evaluation A (Pre-1980)) is on record as “no conclusion”. Where the note is “Species/Cell Type: Vicia faba, Assay Type: Chromosome aberrations, Assay Code: VIC+, Evaluation Type: Evaluation A (Pre-1980)”, the mutagenic call was “active; positive”.

As to `NNC(=O)c1ccncc1`, the mutagenic call by setting is: (Species/Cell Type: Human, Assay Type: Sister-chromatid exchange (SCE) in vitro, Assay Code: SC1+, Evaluation Type: Evaluation B (Post-1980)) “active; positive”; (Species/Cell Type: Mammalian germ cells, Sex: Male, Assay Type: Chromosome aberrations in vivo, Assay Code: CY9T, Evaluation Type: Evaluation A (Pre-1980)) “no conclusion”; (Species/Cell Type: Mammalian oocytes or early embryo, Assay Type: Chromosome aberrations in vivo, Assay Code: CYO-, Evaluation Type: Evaluation A (Pre-1980)) “inactive; negative”; (Species/Cell Type: Mouse, Sex: Female, Assay Type: Spot test, gene mutation, Assay Code: MSTT, Evaluation Type: Evaluation A (Pre-1980)) “no conclusion”; under setting [1], “inactive; negative”; (Species/Cell Type: Nonhuman, Assay Type: Sister-chromatid exchange (SCE) in vitro, Assay Code: SC2+D, Dose Response: With dose response, Evaluation Type: Evaluation B (Post-1980)) “active; positive”. The mutagenic call was “no conclusion” under setting [3]; “inactive; negative” (Species/Cell Type: Rabbit, Sex: Male, Assay Type: Sperm morphology, Assay Code: SPR-, Evaluation Type: Evaluation A (Pre-1980)); “inactive; negative” under setting [4]; “no conclusion” (Species/Cell Type: Salmonella typhimurium, Assay Type: Forward and reverse gene mutation, body fluid assay, Assay Code: BFUT, Evaluation Type: Evaluation A (Pre-1980)); “active; positive” (Species/Cell Type: Salmonella typhimurium, Assay Type: Forward and reverse gene mutation, host-mediated assay, Assay Code: HMA+, Evaluation Type: Evaluation A (Pre-1980)). For the same compound, the call under setting [2] was “active; positive”.

Take `Nc1ccc(I)cc1`: the mutagenic call under setting [1] is “inactive; negative”.

For `Nc1ccc([N+](=O)[O-])cc1N`, the mutagenic call by setting is: (Species/Cell Type: Drosophila melanogaster, Assay Type: Sex-linked recessive lethal gene mutation, Assay Code: SRL+, Evaluation Type: Evaluation A (Pre-1980)) “active; positive”; (Species/Cell Type: Fischer rat embryo (RLV/1706) cells, Assay Type: Cell transformation, viral enhanced, Assay Code: CTR+, Evaluation Type: Evaluation A (Pre-1980)) “active; positive”; (Species/Cell Type: Human diploid fibroblasts, Assay Type: Unscheduled DNA synthesis (UDS) in vitro, DNA effects, Assay Code: UDHT, Evaluation Type: Evaluation A (Pre-1980)) “no conclusion”; (Species/Cell Type: Mammalian polychromatic erythrocytes, Assay Type: Micronucleus test, chromosome aberrations, Assay Code: MNTT, Evaluation Type: Evaluation A (Pre-1980)) “no conclusion”; (Species/Cell Type: Mouse (C3H/10T1/2) cells, Assay Type: Cell transformation, Assay Code: CTH+, Evaluation Type: Evaluation A (Pre-1980)) “active; positive”; under setting [1], “inactive; negative”. Also, the mutagenic call reads like this: (Species/Cell Type: Neurospora crassa, Assay Type: Aneuploidy, chromosome aberrations, Assay Code: NEN-, Evaluation Type: Evaluation A (Pre-1980)) “inactive; negative”; (Species/Cell Type: Nonhuman, Assay Type: Chromosome aberrations in vitro, Assay Code: CY&+D, Dose Response: With dose response, Evaluation Type: Evaluation A (Pre-1980)) “active; positive”; under setting [5], “active; positive”; (Species/Cell Type: Nonhuman, Sex: Male, Assay Type: Sister-chromatid exchange (SCE) in vivo, Assay Code: SC3TM, Evaluation Type: Evaluation B (Post-1980)) “no conclusion”; (Species/Cell Type: Rodents, Sex: Male, Assay Type: Dominant lethal test, Assay Code: DLTT, Evaluation Type: Evaluation A (Pre-1980)) “no conclusion”; (Species/Cell Type: Saccharomyces cerevisiae, Assay Type: Reverse gene mutation, Assay Code: YER-, Evaluation Type: Evaluation A (Pre-1980)) “inactive; negative”. In addition, the mutagenic call was “active; positive” under setting [6]; “active; positive” (Species/Cell Type: Salmonella typhimurium, Assay Type: Forward and reverse gene mutation, body fluid assay, Assay Code: BFU+, Evaluation Type: Evaluation A (Pre-1980)); “active; positive” (Species/Cell Type: Syrian hamster embryo (SHE) cells, Assay Type: Cell transformation, clonal assay, Assay Code: CTC+, Evaluation Type: Evaluation A (Pre-1980)). Moreover, for the setting “Species/Cell Type: Nonhuman, Assay Code: CCG-, Evaluation Type: Evaluation A (Pre-1980)”, the call is “inactive; negative”.

Regarding `Cc1ccc(S(=O)(=O)NC(=O)N[C@H]2[C@H]3CC[C@@](C)([C@H]2O)C3(C)C)cc1`, the mutagenic call under setting [3] is given as “no conclusion”.

On to `O=c1c(O)c(-c2ccccc2)oc2cc(O)cc(O)c12`, for which the mutagenic call is, setting by setting: (Species/Cell Type: Mammalian polychromatic erythrocytes, Assay Type: Micronucleus test, chromosome aberrations, Assay Code: MNT+U, Dose Response: Unconfirmed positive response, Evaluation Type: Evaluation B (Post-1980)) “active; positive”; (Species/Cell Type: Nonhuman, Assay Type: Sister-chromatid exchange (SCE) in vitro, Assay Code: SC2+*, Activation: With metabolic activation, Evaluation Type: Evaluation B (Post-1980)) “active; positive”.

For the compound `CN1C(C(=O)Nc2ccccn2)=C(O)c2ccccc2S1(=O)=O`, the mutagenic call (Species/Cell Type: Human lymphocytes, Assay Type: Sister-chromatid exchange (SCE) in vivo, Assay Code: SCY+, Evaluation Type: Evaluation B (Post-1980)) is “active; positive”.

Consider `C=C(Cl)Cl`, for which the mutagenic call (Species/Cell Type: Mammalian polychromatic erythrocytes, Assay Type: Micronucleus test, chromosome aberrations, Assay Code: MNT-, Evaluation Type: Evaluation B (Post-1980)) is “inactive; negative”; the mutagenic call under setting [4] is “inactive; negative”; the mutagenic call under setting [7] was “active; positive”; the mutagenic call (Species/Cell Type: Tradescantia species, Assay Type: Gene mutation, Assay Code: TRM+D, Dose Response: With dose response, Evaluation Type: Evaluation A (Pre-1980)) was “active; positive”. Moreover, the call under setting [2] was “active; positive”.

For the compound `Cn1ccc(CO)c1CO`, the mutagenic call (Species/Cell Type: Human lymphocytes, Assay Type: Sister-chromatid exchange (SCE) in vitro, Assay Code: SCL+D, Dose Response: With dose response, Evaluation Type: Evaluation B (Post-1980)) is “active; positive”.

Take `[Mg+2]`: the mutagenic call (Species/Cell Type: Bacillus subtilis (H17 vs M45), Assay Type: Rec-assay, spot test, DNA effects (bacterial DNA repair), Assay Code: REW-, Evaluation Type: Evaluation A (Pre-1980)) is “inactive; negative”.

Regarding `C[C@]12CC[C@@H]3c4ccc(O)cc4CC[C@H]3[C@@H]1CCC2=O`, the call (Species/Cell Type: Nonhuman, Assay Code: CCG+, Evaluation Type: Evaluation A (Pre-1980)) is “active; positive”.

In the case of `c1ccncc1`, the mutagenic call by setting is: (Species/Cell Type: Mammalian polychromatic erythrocytes, Assay Type: Micronucleus test, chromosome aberrations, Assay Code: MNTT, Evaluation Type: Evaluation B (Post-1980)) “no conclusion”; under setting [5], “active; positive”.

Take `c1cc2c3c(c1)cc1ccc4cccc5cc(c3c1c45)CC2`: the mutagenic call under setting [7] is “active; positive”.

Consider `NC(=O)N1c2ccccc2C=Cc2ccccc21`, for which the mutagenic call is “no conclusion” under setting [8], “no conclusion” under setting [9] and “no conclusion” under setting [10].

For the compound `Cc1cc(N)c(N)cc1N`, under setting [10], the mutagenic call is “no conclusion”.

As to `COc1ccc2c(ccc3c4c(ccc32)C(C)CC4)c1` (stereo not given), the mutagenic call under setting [10] is recorded as “no conclusion”.

Take `O=C(CCNNC(=O)c1ccncc1)NCc1ccccc1`: the mutagenic call (Species/Cell Type: Nonhuman, Assay Type: Sister-chromatid exchange (SCE) in vivo, Assay Code: SC3+, Evaluation Type: Evaluation B (Post-1980)) is “active; positive” and the mutagenic call under setting [6] is “active; positive”.

For the compound `CN1CCN(CCCN2c3ccccc3S(=O)c3ccccc32)CC1`, the mutagenic call was “no conclusion” under setting [8] and “no conclusion” under setting [9].

Take `O=C1CCc2c1c(=O)oc1c3c(cc(O)c21)O[C@H]1OC=C[C@@H]31`: the mutagenic call under setting [10] is on record as “no conclusion”.

For the compound `COc1cccc(OC)c1O`, the mutagenic call runs as follows: under setting [8], “no conclusion”; under setting [9], “no conclusion”.

As for `C#CC(OC(=O)NC1CCCCC1)(c1ccccc1)c1ccc(C)c(C)c1` (stereo not given), the mutagenic call runs as follows: (Species/Cell Type: Human diploid fibroblasts, Assay Type: Unscheduled DNA synthesis (UDS) in vitro, DNA effects, Assay Code: UDH+, Evaluation Type: Evaluation A (Pre-1980)) “active; positive”; under setting [6], “active; positive”.
